# Source: ChEMBL document CHEMBL1159104, “Potent transglutaminase inhibitors, aryl beta-aminoethyl ketones” (Bioorg Med Chem Lett, 2010)
# Biological target: T1, Protein-glutamine gamma-glutamyltransferase (Cavia porcellus, UniProt Q7M0F8)
# T1 sequence (Q7M0F8 whole entry): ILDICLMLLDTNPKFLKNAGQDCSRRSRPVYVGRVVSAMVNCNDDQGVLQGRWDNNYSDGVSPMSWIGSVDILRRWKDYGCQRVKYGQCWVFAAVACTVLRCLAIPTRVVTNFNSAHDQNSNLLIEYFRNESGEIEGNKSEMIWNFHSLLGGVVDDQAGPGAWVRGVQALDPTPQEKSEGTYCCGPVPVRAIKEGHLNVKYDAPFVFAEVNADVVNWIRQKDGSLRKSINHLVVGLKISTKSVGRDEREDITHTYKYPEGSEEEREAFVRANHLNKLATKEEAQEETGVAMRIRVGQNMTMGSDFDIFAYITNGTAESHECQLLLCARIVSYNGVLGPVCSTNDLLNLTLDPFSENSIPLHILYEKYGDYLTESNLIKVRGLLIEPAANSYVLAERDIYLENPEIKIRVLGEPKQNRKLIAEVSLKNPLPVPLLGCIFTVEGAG
# Test: Inhibition of guinea pig liver transglutaminase
row,Compound,IC50
1,CC(C)N(CCC(=O)c1ccc(F)cc1)Cc1ccccc1,10000 nM
2,CC(C)N(CCC(=O)c1cc2ccccc2s1)Cc1ccccc1,770 nM
3,CC(C)(C)N(CCO)CCC(=O)c1cccnc1,7800 nM
4,CC(C)N(CCC(=O)c1ccco1)Cc1ccccc1,320 nM
5,CC(C)N(CCO)CCC(=O)c1ccc2ccccc2c1,16000 nM
6,Cc1ccc(C(=O)CCN(CCO)C(C)C)o1,420 nM
7,Cc1ccc(C(=O)CCN(CCO)C(C)(C)C)o1,680 nM
8,O=C(CCN(CCO)Cc1ccccc1)c1ccco1,1300 nM
9,CCc1nccnc1C(=O)CCN(CCO)CCO,15000 nM
10,CCc1nccnc1C(=O)CCN(Cc1ccccc1)C(C)(C)C,1700 nM
11,CC(C)N(CCO)CCC(=O)c1ccccc1,10000 nM
12,CC(C)(C)N(CCC(=O)c1ccncc1)Cc1ccccc1,1400 nM
13,CN(CCO)CCC(=O)c1cccnc1,5200 nM
14,CC(C)N(CCO)CCC(=O)c1ccco1,120 nM
15,CCN(CCC(=O)c1ccncc1)Cc1ccccc1,1400 nM
16,CCCCN(CCO)CCC(=O)c1ccncc1,2500 nM
17,CC(C)(C)N(CCC(=O)c1ccco1)Cc1ccccc1,650 nM
18,CN(CCO)CCC(=O)c1ccccn1,> 30000 nM
19,CC(C)(C)N(CCO)CCC(=O)c1ccc(C#N)cc1,10000 nM
20,CC(C)N(CCC(=O)c1ccc(C#N)cc1)Cc1ccccc1,590 nM
21,CCN(CCC(=O)c1cnccn1)Cc1ccccc1,670 nM
22,O=C(CCN(CCO)CCO)c1ccc2ccccc2c1,22000 nM
23,CC(C)(C)N(CCC(=O)c1ccc(C#N)cc1)Cc1ccccc1,1700 nM

row,Compound,IC50
1,CCCCN(CCO)CCC(=O)c1ccc(C)o1,800 nM
2,Cc1ccc(C(=O)CCN(CCO)Cc2ccccc2)o1,6600 nM
3,CN(CCC(=O)c1ccc(Cc2ccccc2)cc1)Cc1ccccc1,26000 nM
4,CC(C)(C)N(CCC(=O)c1ccc(Cl)cc1)Cc1ccccc1,700 nM
5,CC(C)N(CCO)CCC(=O)c1ccccn1,5400 nM
6,CN(CCO)CCC(=O)c1ccco1,1200 nM
7,O=C(CCN(CCO)CCO)c1ccsc1,13000 nM
8,O=C(CCN(CCO)CCO)c1ccccn1,5100 nM
9,CC(C)(C)N(CCC(=O)c1ccccc1)Cc1ccccc1,1700 nM
10,CC(C)N(CCC(=O)c1ccccn1)Cc1ccccc1,1100 nM
11,CC(C)N(CCC(=O)c1ccc2c(Cl)cccc2c1)Cc1ccccc1,1700 nM
12,CCCCN(CCO)CCC(=O)c1ccco1,840 nM
13,CC(C)(C)N(CCO)CCC(=O)c1ccccn1,12000 nM
14,CN(CCC(=O)c1ccc(Cl)s1)Cc1ccccc1,1000 nM
15,CN(CCC(=O)c1cnccn1)Cc1ccccc1,1200 nM
16,CC(C)N(CCO)CCC(=O)c1cc(Cl)sc1Cl,2500 nM
17,O=C(CCN(CCO)Cc1ccccc1)c1ccsc1,12000 nM
18,CN(CCC(=O)c1ccncc1)Cc1ccccc1,2000 nM
19,CN(CCO)CCC(=O)c1cccs1,4000 nM
20,CN(CCC(=O)c1cccs1)Cc1ccccc1,10000 nM
21,CCCCN(CCO)CCC(=O)c1cnccn1,1700 nM
22,CCN(CCC(=O)c1ccsc1)Cc1ccccc1,12000 nM
23,Cc1ccc(C(=O)CCN(C)Cc2ccccc2)o1,4300 nM

row,Compound,IC50
1,O=C(CCN(CCO)Cc1ccccc1)c1ccc2c(Cl)cccc2c1,1500 nM
2,CC(C)(C)N(CCO)CCC(=O)c1ccco1,4500 nM
3,CCN(CCC(=O)c1ccco1)Cc1ccccc1,550 nM
4,O=C(CCN(CCO)CCO)c1cccnc1,3300 nM
5,CCN(CCC(=O)c1cccs1)Cc1ccccc1,2100 nM
6,CC(C)N(CCC(=O)c1ccsc1)Cc1ccccc1,8600 nM
7,CC(C)N(CCO)CCC(=O)c1ccc(F)cc1,10000 nM
8,CC(C)(C)N(CCO)CCC(=O)c1cccs1,6800 nM
9,CC(C)N(CCO)CCC(=O)c1cc2ccccc2s1,9400 nM
10,O=C(CCN(CCO)CCO)c1cccs1,8300 nM
11,CC(C)N(CCC(=O)c1ccc(Cl)s1)Cc1ccccc1,230 nM
12,CCc1nccnc1C(=O)CCN(CCO)C(C)C,7700 nM
13,O=C(CCN(CCO)Cc1ccccc1)c1cnccn1,1500 nM
14,O=C(CCN(CCO)CCO)c1nccs1,6900 nM
15,O=C(CCN(CCO)Cc1ccccc1)c1cccs1,10000 nM
16,CC(C)N(CCC(=O)c1cc(Cl)sc1Cl)Cc1ccccc1,980 nM
17,CC(C)N(CCC(=O)c1ccc(Br)s1)Cc1ccccc1,190 nM
18,CN(CCO)CCC(=O)c1nccs1,4700 nM
19,CC(C)N(CCC(=O)c1cccnc1)Cc1ccccc1,830 nM
20,CCCCN(CCO)CCC(=O)c1ccccn1,10000 nM
21,O=C(CCN(CCO)Cc1ccccc1)c1nccs1,8500 nM
22,CC(C)N(CCC(=O)c1ccncc1)Cc1ccccc1,830 nM
23,CC(C)N(CCC(=O)c1ccc(Cc2ccccc2)cc1)Cc1ccccc1,2600 nM

row,Compound,IC50
1,CN(CCO)CCC(=O)c1cnccn1,9900 nM
2,Cc1cnc(C(=O)CCN(C)Cc2ccccc2)s1,1800 nM
3,O=C(CCN(CCO)CCO)c1ccco1,360 nM
4,Cc1ccc(C(=O)CCN(Cc2ccccc2)C(C)(C)C)o1,2300 nM
5,CCCCN(CCO)CCC(=O)c1ccc(Oc2ccccc2)cc1,7400 nM
6,CCCCN(CCO)CCC(=O)c1ncc(C)s1,2300 nM
7,CCN(CCC(=O)c1ccc(Br)s1)Cc1ccccc1,610 nM
8,CN(CCC(=O)c1ccccn1)Cc1ccccc1,17000 nM
9,CC(C)(C)N(CCC(=O)c1nccs1)Cc1ccccc1,1400 nM
10,CC(C)N(CCO)CCC(=O)c1ccc(Cl)s1,5400 nM
11,CC(C)(C)N(CCC(=O)c1cc2ccccc2s1)Cc1ccccc1,210 nM
12,O=C(CCN(CCO)Cc1ccccc1)c1cccnc1,2300 nM
13,CCN(CCC(=O)c1cccnc1)Cc1ccccc1,1700 nM
14,CCc1nccnc1C(=O)CCN(CCO)Cc1ccccc1,18000 nM
15,O=C(CCN(CCO)Cc1ccccc1)c1csc(Cl)c1,2700 nM
16,CC(C)(C)N(CCC(=O)c1ccc(Cl)s1)Cc1ccccc1,100 nM
17,CC(C)N(CCO)CCC(=O)c1nccs1,16000 nM
18,CC(C)N(CCC(=O)c1cnccn1)Cc1ccccc1,530 nM
19,CCN(CCC(=O)c1ccc(F)cc1)Cc1ccccc1,13000 nM
20,CCN(CCC(=O)c1ccc(Cl)s1)Cc1ccccc1,420 nM
21,CN(CCC(=O)c1ccsc1)Cc1ccccc1,10000 nM
22,CN(CCC(=O)c1ccc(Oc2ccccc2)cc1)Cc1ccccc1,18000 nM
23,CCCCN(CCO)CCC(=O)c1ccsc1,12000 nM

row,Compound,IC50
1,CC(C)(C)N(CCC(=O)c1cccnc1)Cc1ccccc1,470 nM
2,CC(C)(C)N(CCC(=O)c1ccc(Cc2ccccc2)cc1)Cc1ccccc1,3600 nM
3,CC(C)(C)N(CCC(=O)c1cnccn1)Cc1ccccc1,570 nM
4,CCCCN(CCO)CCC(=O)c1cccs1,19000 nM
5,CC(C)N(CCC(=O)c1cccs1)Cc1ccccc1,1400 nM
6,CC(C)(C)N(CCC(=O)c1cccs1)Cc1ccccc1,440 nM
7,CC(C)N(CCO)CCC(=O)c1cnccn1,6900 nM
8,CC(C)(C)N(CCC(=O)c1ccc(F)cc1)Cc1ccccc1,1100 nM
9,O=C(CCN(CCO)Cc1ccccc1)c1ccncn1,4900 nM
10,CCN(CCC(=O)c1nccs1)Cc1ccccc1,2600 nM
11,CC(C)N(CCC(=O)c1ccc(Cl)cc1)Cc1ccccc1,1400 nM
12,CC(C)N(CCC(=O)c1ccc2ccccc2c1)Cc1ccccc1,4000 nM
13,CCN(CCC(=O)c1ccccn1)Cc1ccccc1,2700 nM
14,CC(C)N(CCC(=O)c1nccs1)Cc1ccccc1,3200 nM
15,CN(CCC(=O)c1cccnc1)Cc1ccccc1,4000 nM
16,CC(C)(C)N(CCC(=O)c1ccsc1)Cc1ccccc1,11000 nM
17,CC(C)N(CCO)CCC(=O)c1cccs1,6500 nM
18,CN(CCC(=O)c1ccco1)Cc1ccccc1,1800 nM
19,CC(C)N(CCO)CCC(=O)c1ccc(C#N)cc1,6100 nM
20,CC(C)N(CCO)CCC(=O)c1ccncc1,4800 nM
21,CCN(CCC(=O)c1ccc(C)o1)Cc1ccccc1,2800 nM
22,CC(C)N(CCC(=O)c1ccccc1)Cc1ccccc1,5600 nM
23,CCCCN(CCO)CCC(=O)c1ccc2c(Cl)cccc2c1,1900 nM

row,Compound,IC50
1,CC(C)N(CCO)CCC(=O)c1cccnc1,7400 nM
2,Cc1ccc(C(=O)CCN(CCO)CCO)o1,6500 nM
3,CC(C)(C)N(CCO)CCC(=O)c1ccncc1,11000 nM
4,CN(CCC(=O)c1nccs1)Cc1ccccc1,4300 nM
5,CC(C)(C)N(CCC(=O)c1ccccn1)Cc1ccccc1,1000 nM
6,CC(C)N(CCC(=O)c1ccc(Oc2ccccc2)cc1)Cc1ccccc1,12000 nM
7,CN(CCC(=O)c1ccc2ccccc2c1)Cc1ccccc1,21000 nM
8,CC(C)(C)N(CCO)CCC(=O)c1cnccn1,2700 nM
9,CCc1nccnc1C(=O)CCN(Cc1ccccc1)C(C)C,920 nM
10,Cc1ccc(C(=O)CCN(Cc2ccccc2)C(C)C)o1,320 nM
11,CC(C)(C)N(CCC(=O)c1ccc(Br)s1)Cc1ccccc1,81 nM
12,O=C(CCN(CCO)CCO)c1ccc(Cl)s1,1900 nM
13,CCCCN(CCO)CCC(=O)c1ccc(Br)s1,1400 nM
14,O=C(CCN(CCO)Cc1ccccc1)c1ccccc1,11000 nM
15,CC(C)(C)N(CCO)CCC(=O)c1nccs1,10000 nM
16,CN(CCO)CCC(=O)c1ccsc1,14000 nM
17,O=C(CCN(CCO)Cc1ccccc1)c1ccc(Cl)s1,1500 nM
18,O=C(CCN(CCO)Cc1ccccc1)c1ccncc1,2500 nM
19,CC(C)N(CCO)CCC(=O)c1ccsc1,11000 nM
20,CN(CCO)CCC(=O)c1ccncc1,7900 nM
21,CC(C)N(CCO)CCC(=O)c1ccc(Cl)cc1,2200 nM
22,Cc1cnc(C(=O)CCN(Cc2ccccc2)C(C)C)s1,850 nM
